Assay results as given in patent US20040067955A1, “Pyridazinone compound and pharmaceutical use thereof” (Fujisawa Pharmaceutical Co. Ltd., priority 2002, published 2004).

Biological target: T1, human A1 receptor (Homo sapiens, UniProt P30542)
T1 sequence (P30542 1-326): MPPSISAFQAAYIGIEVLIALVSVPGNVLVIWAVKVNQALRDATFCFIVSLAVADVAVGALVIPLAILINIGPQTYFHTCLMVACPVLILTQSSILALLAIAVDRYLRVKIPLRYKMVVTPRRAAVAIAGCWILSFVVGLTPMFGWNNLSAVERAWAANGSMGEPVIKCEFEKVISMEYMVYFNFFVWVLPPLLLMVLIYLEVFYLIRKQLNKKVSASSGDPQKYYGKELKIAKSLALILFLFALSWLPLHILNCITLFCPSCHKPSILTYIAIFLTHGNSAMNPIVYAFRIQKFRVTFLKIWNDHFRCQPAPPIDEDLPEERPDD
Experiment: Adenosine antagonistic activity: radioligand binding with [3H]DPCPX (4.5 nM)
Details: not given
Procedure: (§1) The adenosine antagonistic activity [Ki(nM)] of the test compound was examined by radioligand binding techniques using 8-cyclopentyl-1,3-dipropylxanthine, [dipropyl-2,3-^3H (N)] ([^3H]DPCPX, 4.5 nM) for human A1 receptor and [^3H]CGS 21680 (20 nM) for human A2a receptor.

Ki [nM]	SMILES
0.43	CC(C)n1nc(-c2cc(O)cnc2-c2ccccc2)ccc1=O [Example 53, 6-(5-hydroxy-2-phenyl-3-pyridyl)-2-isopropyl-3(2H)-pyridazinone]
6.42	CC(C)n1nc(-c2cc(Cl)c(N)nc2-c2ccc(F)cc2)ccc1=O [Example 74, 6-[6-Amino-5-chloro-2-(4-fluorophenyl)-3-pyridyl]-2-isopropyl-3(2H)-pyridazinone]
0.41	CC(C)n1nc(-c2cc(Br)c(N)nc2-c2ccccc2)ccc1=O [Example 33, 6-(6-amino-5-bromo-2-phenyl-3-pyridyl)-2-isopropyl-3(2H)-pyridazinone]
4.44	CC(C)n1nc(-c2cc(-c3nc(-c4ccccc4)cs3)c(N)nc2-c2ccccc2)ccc1=O [Example 40, 6-[6-Amino-5-(4-phenyl-1,3-thiazol-2-yl)-2-phenyl-3-pyridyl]-2-isopropyl-3(2H)-pyridazinone]

Biological target: human A2a receptor (Homo sapiens, UniProt P29274)
Sequence (P29274 whole entry): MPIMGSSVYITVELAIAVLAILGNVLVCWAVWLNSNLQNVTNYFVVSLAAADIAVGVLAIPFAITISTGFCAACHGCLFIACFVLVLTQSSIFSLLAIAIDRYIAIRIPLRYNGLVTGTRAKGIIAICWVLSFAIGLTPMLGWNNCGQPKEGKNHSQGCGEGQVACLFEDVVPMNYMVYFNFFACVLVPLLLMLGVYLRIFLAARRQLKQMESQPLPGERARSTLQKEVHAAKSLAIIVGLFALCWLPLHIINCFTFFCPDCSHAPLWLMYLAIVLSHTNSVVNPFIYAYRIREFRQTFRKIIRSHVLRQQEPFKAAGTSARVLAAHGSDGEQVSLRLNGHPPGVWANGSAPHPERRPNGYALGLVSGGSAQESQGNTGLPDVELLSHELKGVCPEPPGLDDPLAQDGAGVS
Experiment: Adenosine antagonistic activity: radioligand binding with [3H]CGS 21680 (20 nM)
Details: not given
Procedure: as §1

Ki [nM]	SMILES
3.87	CC(C)n1nc(-c2cc(O)cnc2-c2ccccc2)ccc1=O [Example 53, 6-(5-hydroxy-2-phenyl-3-pyridyl)-2-isopropyl-3(2H)-pyridazinone]
1.28	CC(C)n1nc(-c2cc(Cl)c(N)nc2-c2ccc(F)cc2)ccc1=O [Example 74, 6-[6-Amino-5-chloro-2-(4-fluorophenyl)-3-pyridyl]-2-isopropyl-3(2H)-pyridazinone]
0.91	CC(C)n1nc(-c2cc(Br)c(N)nc2-c2ccccc2)ccc1=O [Example 33, 6-(6-amino-5-bromo-2-phenyl-3-pyridyl)-2-isopropyl-3(2H)-pyridazinone]
6.58	CC(C)n1nc(-c2cc(-c3nc(-c4ccccc4)cs3)c(N)nc2-c2ccccc2)ccc1=O [Example 40, 6-[6-Amino-5-(4-phenyl-1,3-thiazol-2-yl)-2-phenyl-3-pyridyl]-2-isopropyl-3(2H)-pyridazinone]

System: not given
Experiment: not given
Details: not given

SMILES	melting point [°C]
CC(C)n1nc(-c2cc(Cl)c(N)nc2-c2ccccc2)ccc1=O [Example 34, 6-(6-amino-5-chloro-2-phenyl-3-pyridyl)-2-isopropyl-3 (2H)-pyridazinone]	207 to 208
CC(C)n1nc(-c2cc(C(=O)NCCO)cnc2-c2ccccc2)ccc1=O [Example 20, N-(2-Hydroxyethyl)-5-(1-isopropyl-6-oxo-1,6-dihydro-3-pyridazinyl)-6-phenylnicotinamide]	165 to 167
CC(C)n1nc(-c2cc(C(=O)NCc3ccccn3)cnc2-c2ccccc2)ccc1=O [Example 17, 5-(1-Isopropyl-6-oxo-1,6-dihydro-3-pyridazinyl)-6-phenyl-N-(2-pyridylmethyl)nicotinamide]	193 to 194
CC(C)n1nc(-c2cc(C(N)=O)c(Cl)nc2-c2ccccc2)ccc1=O [Example 5, 2-chloro-5-(1-isopropyl-6-oxo-1,6-dihydro-3-pyridazinyl)-6-phenylnicotinamide]	199 to 200
CC(C)n1nc(-c2cc(C#N)c(=O)[nH]c2-c2ccccc2)ccc1=O [Example 1, 5-(1-isopropyl-6-oxo-1,6-dihydro-3-pyridazinyl)-2-oxo-6-phenyl-1,2-dihydro-3-pyridine-carbonitrile]	> 250
CC(C)n1nc(-c2cc(C(=O)N3CCN(C)CC3)cnc2-c2ccccc2)ccc1=O [Example 19, 2-Isopropyl-6-{5-[(4-methyl-1-piperazinyl)carbonyl]-2-phenyl-3-pyridyl}-3(2H)-pyridazinone]	165 to 166
CC(C)n1nc(-c2cc(-c3ccccc3)c(N)nc2-c2ccccc2)ccc1=O [Example 36, 6-(6-amino-2,5-diphenyl-3-pyridyl)-2-isopropyl-3 (2H)-pyridazinone]	208 to 209
CC(C)n1nc(-c2cc(C#N)c(C(=O)O)nc2-c2ccccc2)ccc1=O [Example 11, 3-cyano-5-(1-isopropyl-6-oxo-1,6-dihydro-3-pyridazinyl)-6-phenyl-2-pyridinecarboxylic acid]	196 to 198
CC(C)n1nc(-c2cc(C(=O)O)c(=O)[nH]c2-c2ccccc2)ccc1=O [Example 13, 5-(1-isopropyl-6-oxo-1,6-dihydro-3-pyridazinyl)-2-oxo-6-phenyl-1,2-dihydro-3-pyridinecarboxylic acid]	212 to 215
COC(=O)c1cc(-c2ccc(=O)n(C(C)C)n2)c(-c2ccccc2)nc1OCC(N)=O [Example 50, Methyl 2-carbamoylmethoxy-5-(1-isopropyl-6-oxo-1,6-dihydro-3-pyridazinyl)-6-phenylnicotinate]	183 to 184
CC(C)n1nc(-c2cc(-n3cccc3)cnc2-c2ccccc2)ccc1=O [Example 29, 2-isopropyl-6-[2-phenyl-5-(1H-pyrrol-1-yl)-3-pyridyl]-3(2H)-pyridazinone]	189 to 190
CC(C)n1nc(-c2cc(N)cnc2-c2ccccc2)ccc1=O [Example 26, 6-(5-amino-2-phenyl-3-pyridyl)-2-isopropyl-3 (2H)-pyridazinone]	147 to 148
CC(C)n1nc(-c2ccc(=O)[nH]c2-c2ccccc2)ccc1=O [Example 30, 2-isopropyl-6-(6-oxo-2-phenyl-1,6-dihydro-3-pyridyl)-3(2H)-pyridazinone]	107 to 109
CC(C)n1nc(-c2cc(C#N)c(Cl)nc2-c2ccccc2)ccc1=O [Example 2, 2-chloro-5-(1-isopropyl-6-oxo-1,6-dihydro-3-pyridazinyl)-6-phenylnicotinonitrile]	191 to 192
CNC(=O)c1cnc(-c2ccccc2)c(-c2ccc(=O)n(C(C)C)n2)c1 [Example 15, 5-(1-isopropyl-6-oxo-1,6-dihydro-3-pyridazinyl)-N-methyl-6-phenyl-nicotinamide]	212 to 213

Second part, the molecule after the results:

melting point [°C]	SMILES
137 to 138	CC(C)n1nc(-c2ccc(OCC(N)=O)nc2-c2ccccc2)ccc1=O [Example 31, 2-{[5-(1-isopropyl-6-oxo-1,6-dihydro-3-pyridazinyl)-6-phenyl-2-pyridyl]oxy}acetamide]
133 to 135	CC(C)n1nc(-c2cc(C#N)cnc2-c2ccccc2)ccc1=O [Example 8, 5-(1-isopropyl-6-oxo-1,6-dihydro-3-pyridazinyl)-6-phenylnicotinonitrile]
132 to 133	CC(C)n1nc(-c2cc(C(=O)N3CCOCC3)cnc2-c2ccccc2)ccc1=O [Example 18, 2-Isopropyl-6-[5-(4-morpholinylcarbonyl)-2-phenyl-3-pyridyl]-3 (2H)-pyridazinone]
229 to 230	CC(C)n1nc(-c2cc(C(N)=O)cnc2-c2ccccc2)ccc1=O [Example 6, 5-(1-isopropyl-6-oxo-1,6-dihydro-3-pyridazinyl)-6-phenylnicotinamide]
> 250	CC(C)n1nc(-c2cc(C(N)=O)c(N)nc2-c2ccccc2)ccc1=O [Example 7, 2-Amino-5-(1-isopropyl-6-oxo-1,6-dihydro-3-pyridazinyl)-6-phenylnicotinamide]
167 to 171	CC(C)n1nc(-c2ccc(N)nc2-c2ccccc2)ccc1=O [Example 32, 6-(6-amino-2-phenyl-3-pyridyl)-2-isopropyl-3(2H)-pyridazinone]
207 to 208	CC(=O)c1cnc(-c2ccccc2)c(-c2ccc(=O)n(C(C)C)n2)c1 [Example 23, 6-(5-acetyl-2-phenyl-3-pyridyl)-2-isopropyl-3(2H)-pyridazinone]
162 to 163	CC(C)n1nc(-c2cc(C(=O)NCCN3CCOCC3)cnc2-c2ccccc2)ccc1=O [Example 22, 5-(1-Isopropyl-6-oxo-1,6-dihydro-3-pyridazinyl)-N-[2-(4-morpholinyl)ethyl]-6-phenylnicotinamide]
205 to 206	CC(C)n1nc(-c2cc(C(=O)NCc3ccccc3)cnc2-c2ccccc2)ccc1=O [Example 16, N-Benzyl-5-(1-isopropyl-6-oxo-1,6-dihydro-3-pyridazinyl)-6-phenylnicotinamide]
136 to 138	COC(=O)c1nc(-c2ccccc2)c(-c2ccc(=O)n(C(C)C)n2)cc1C#N [Example 9, methyl 3-cyano-5-(1-isopropyl-6-oxo-1,6-dihydro-3-pyridazinyl)-6-phenyl-2-pyridinecarboxylate]
186 to 188	CC(C)n1nc(-c2c(-c3ccccc3)nc(Cl)c(N)c2Cl)ccc1=O [Example 77, 6-(5-amino-4,6-dichloro-2-phenyl-3-pyridyl)-2-isopropyl-3(2H)-pyridazinone]
174 to 176	CC(C)n1nc(-c2cc(Br)c(N)nc2-c2ccccc2)ccc1=O [Example 33, 6-(6-amino-5-bromo-2-phenyl-3-pyridyl)-2-isopropyl-3(2H)-pyridazinone]
207 to 208	CC(=O)Nc1cnc(-c2ccccc2)c(-c2ccc(=O)n(C(C)C)n2)c1 [Example 28, N-[5-(1-Isopropyl-6-oxo-1,6-dihydro-3-pyridazinyl)-6-phenyl-3-pyridyl]acetamide]
187 to 189	COc1nc(-c2ccccc2)c(-c2ccc(=O)n(C(C)C)n2)cc1C#N [Example 10, 5-(1-isopropyl-6-oxo-1,6-dihydro-3-pyridazinyl)-2-methoxy-6-phenylnicotinonitrile]
196 to 197	CC(C)n1nc(-c2cc(I)c(N)nc2-c2ccccc2)ccc1=O [Example 35, 6-(6-amino-5-iodo-2-phenyl-3-pyridyl)-2-isopropyl-3 (2H)-pyridazinone]
221 to 223	CC(C)n1nc(-c2cc(C#N)c(C(N)=O)nc2-c2ccccc2)ccc1=O [Example 12, 3-cyano-5-(1-isopropyl-6-oxo-1,6-dihydro-3-pyridazinyl)-6-phenyl-2-pyridinecarboxamide]
253 to 254	CC(C)n1nc(-c2cc(-c3ncnn3C)c(N)nc2-c2ccccc2)ccc1=O [Example 122, 6-[6-amino-5-(1-methyl-1H-1,2,4-triazol-5-yl)-2-phenyl-3-pyridyl]-2-isopropyl-3 (2H)-pyridazinone]

System: ddY mice
Experiment: Anticatalepsy activity in mouse (haloperidol-induced catalepsy, bar test)
Assay type: in vivo
Details: test compound 3.2 mg/kg orally, ddY mice (n=7); haloperidol 0.32 mg/kg i.p. 30 min later; measured 30 min after injection
Procedure: The test compound (3.2 mg/kg) was administered orally with ddY mice (n=7). Then, haloperidol (0.32 mg/kg) was injected intraperitoneally 30 min. after the administration of the compound. Thirty min. After the injection, the cataleptic responses of mice were measured. The forelimbs of each mouse were placed on a 3 cm high, 3 mm wide horizontal bar, and the duration of cataleptic posture was measured for up to 30 sec.

SMILES	Manifestation rate of catalepsy (number of mouse)
CC(C)n1nc(-c2cc(Cl)c(N)nc2-c2ccc(F)cc2)ccc1=O [Example 74, 6-[6-Amino-5-chloro-2-(4-fluorophenyl)-3-pyridyl]-2-isopropyl-3(2H)-pyridazinone]	0/7
